In article PMC12750394 (ACS Omega, 2025):
Bridge positions count the residues as written; N and C are the ends. Square brackets hold non-standard residues; d marks the D form. Peptide text beside a SMILES is read from it. * marks the point of attachment. X1 = CC[C@H](C)CCCCC(=O)*; Dab = NCC[C@H](N)C(=O)O

Experiments:
[1] = tested on: B. subtilis; assay: microbe, parasite or virus in culture; conditions: for average MIC against B. subtilis: microbroth dilution, 4 × 10^6 CFU/mL, 1 h at 37 °C, TSB added, 24 h at 37 °C, growth inhibition read visually, highest DesHDAP2 concentration […], three technical replicates each from four independent biological experiments; for MIC: Bacillus subtilis, read-out: average MIC against B. subtilis
From the text: (§1) The bacteria species and strains used in this study were: Top10 E. coli containing a pET plasmid with ampicillin resistance (Invitrogen Top10), S. marcescens (Carolina Biosciences #155554A), E. aerogenes (ATCC #51697), E. raffinosus (ATCC #49464), S. epidermidis (ATCC #14990) and B. subtilis (ATCC #6501). For radial diffusion, microbroth dilution, and checkerboard assays, bacterial cultures in tryptic soy broth (TSB) were started from individual colonies picked from agar plates and grown overnight (≈16–18 h) in a shaking incubator at 37 °C. Overnight bacterial cultures were diluted into fresh TSB and grown at 37 °C to an optical density (OD600) of 0.5–0.7. Bacteria were pelleted via centrifuge at 1500g at room temperature for 10 min, washed once with cold sterile sodium phosphate buffer (10 mM Na3PO4, 100 mM NaCl, pH 7.4), then pelleted and resuspended again in sodium phosphate buffer.
(§2) Antimicrobial activity was assessed using the microbroth dilution assay. A resuspended bacterial culture prepared as described above was mixed with deionized water to reach a final bacterial concentration of 4 × 10^6 CFU/mL. A twofold dilution series of peptides in deionized water was prepared. 10 μL of the serial dilutions were added to 90 μL of the 4 × 10^6 CFU/mL bacterial solution in a 96-well plate. […] After incubating for 1 h at 37 °C, 50 μL of TSB was added to each testing well. After incubation for 24 h at 37 °C, growth inhibition was determined visually to assess MIC.

[2] = tested on: E. coli; assay: microbe, parasite or virus in culture; conditions: for average MIC against E. coli: microbroth dilution, 4 × 10^6 CFU/mL, 1 h at 37 °C, TSB added, 24 h at 37 °C, growth inhibition read visually, highest DesHDAP2 concentration […], three technical replicates each from four independent biological experiments
Description: as §1, with “For” for “The bacteria species and strains used in this study were: Top10 E. coli containing a pET plasmid with ampicillin resistance (Invitrogen Top10), S. marcescens (Carolina Biosciences #155554A), E. aerogenes (ATCC #51697), E. raffinosus (ATCC #49464), S. epidermidis (ATCC #14990) and B. subtilis (ATCC #6501). For”
as §2, with “well.” for “well. After incubation for 24 h at 37 °C, growth inhibition was determined visually to assess MIC.”

## CC[C@H](C)CCCCC(=O)N[C@@H](CCN)C(=O)N[C@H](C(=O)N[C@@H](CCN)C(=O)N[C@H]1CCNC(=O)[C@H]([C@@H](C)O)NC(=O)[C@H](CCN)NC(=O)[C@H](CCN)NC(=O)[C@H](CC(C)C)NC(=O)[C@@H](Cc2ccccc2)NC(=O)[C@H](CCN)NC1=O)[C@@H](C)O [polymyxin B] (X1-[Dab]T[Dab][Dab][Dab][dF]L[Dab][Dab]T; lactam 4-C (inferred); N-terminus assumed)
[1]
  average MIC against B. subtilis: 2000 µg/mL
[2]
  average MIC against E. coli: 65 µg/mL

## CN(C)[C@@H]1C(O)=C(C(N)=O)C(=O)[C@@]2(O)C(O)=C3C(=O)c4c(O)cccc4[C@@](C)(O)[C@H]3C[C@@H]12 [tetracycline]
[1]
  MIC: 15.6 µg/mL

## NC[C@H]1O[C@H](O[C@H]2[C@H](O)[C@@H](O[C@H]3O[C@H](CO)[C@@H](O)[C@H](N)[C@H]3O)[C@H](N)C[C@@H]2N)[C@H](O)[C@@H](O)[C@@H]1O [kanamycin]
[1]
  average MIC against B. subtilis: 3.125 µg/mL
[2]
  average MIC against E. coli: 50 µg/mL

## C[C@H]1COc2c(N3CCN(C)CC3)c(F)cc3c(=O)c(C(=O)O)cn1c23 [levofloxacin]
[1]
  MIC: 5 µg/mL
[2]; Escherichia coli, read-out: average MIC against E. coli
  MIC: 0.2 µg/mL
